The subject of one assay is Mu-opioid receptor. Description: Opioid sensor (cpGFP in Loop3 of the Mu-opioid receptor) response in HEK293T cells. It counts as cell-based, human.
The target of assay [1] is Beta2AR with a cpGFP integrated into the third intracellular loop (Homo sapiens, UniProt P07550).
The target of another assay is 5HT2A receptor (Homo sapiens, UniProt P28223, DEL264-288/DEL297-315/INS291[…]/INS295[…]/K293E/S316L). Description: 5HT2A receptor sensor with universal module 2, fluorescence response. It counts as cell-based. To be noted: universal module 2 in 5HT2A receptor.
Chain of 5HT2A receptor (P28223 with tags, fused parts or gaps with the stated changes): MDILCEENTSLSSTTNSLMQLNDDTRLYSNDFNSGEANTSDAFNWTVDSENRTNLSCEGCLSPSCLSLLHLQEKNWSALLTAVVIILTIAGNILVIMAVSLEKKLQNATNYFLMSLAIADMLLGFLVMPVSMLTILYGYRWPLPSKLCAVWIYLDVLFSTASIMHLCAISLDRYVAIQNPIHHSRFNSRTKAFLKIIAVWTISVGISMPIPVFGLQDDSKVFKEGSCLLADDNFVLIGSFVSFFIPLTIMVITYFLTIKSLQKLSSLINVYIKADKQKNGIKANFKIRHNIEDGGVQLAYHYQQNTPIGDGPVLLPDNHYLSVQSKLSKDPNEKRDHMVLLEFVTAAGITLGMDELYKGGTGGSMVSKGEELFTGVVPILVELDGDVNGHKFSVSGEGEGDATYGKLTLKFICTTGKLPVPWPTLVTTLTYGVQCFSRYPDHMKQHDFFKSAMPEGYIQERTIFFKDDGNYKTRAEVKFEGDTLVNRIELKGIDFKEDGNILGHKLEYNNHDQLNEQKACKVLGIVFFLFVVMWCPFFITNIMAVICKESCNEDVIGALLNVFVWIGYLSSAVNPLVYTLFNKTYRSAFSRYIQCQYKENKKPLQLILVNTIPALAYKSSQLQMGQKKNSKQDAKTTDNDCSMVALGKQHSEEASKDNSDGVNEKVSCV
In assay [2] the target is T1, B2AR (Homo sapiens, UniProt P07550, C265Q/D251A/E249T/E27Q/F240D/F264D/G16R/G238K/G257K/INS236[…]/INS254[…]/K235L/K263H/N244L/Q243V/Q247F/Q250A/R253I/R259E/R260Y/S246E/S261N/S262N/V242M).
T1 construct: expressed in transfected cells
It counts as cell-based. The note with it: universal module 1 in B2AR; 10 μM.

Assay [3] addresses B2AR (Homo sapiens, UniProt P07550, C265Q/D251A/E249T/E27Q/F240D/F264D/G16R/G238K/G257K/INS233[…]/INS254[…]/K232L/K235P/K263H/L230S/N244L/Q229L/Q231S/Q243V/Q247F/Q250A/R253I/R259E/R260Y/S236N/S246E/S261N/S262N/V242M). Description: B2AR sensor with universal module 2, fluorescence response. In kind it is cell-based. To be noted: inserted into EAKR-deleted third intracellular loop residues-KEHK of B2AR.

Turning to `C[C@@H](NC(=O)[C@@H](N)Cc1ccc(O)cc1)C(=O)NCC(=O)N(C)[C@@H](Cc1ccccc1)C(=O)NCCO` [DAMGO], the “positive ΔF/F” value in the assay with Mu-opioid receptor (10 μM) stood at […]. The Kd in the assay on Mu-opioid receptor (HEK293T cell, drug/response curve, read-out: apparent Kd) stood at […].
Take `NCCc1ccc(O)c(O)c1` [Dopamine]: the “specific response of the sensor” value in assay [1] (50 μM, non-Beta2AR ligands) is recorded as “did not detect any specific response”.
`NCCc1c[nH]c2ccc(O)cc12` [Serotonin] yielded a ΔF/F response on 5HT2A receptor of roughly 30%.
`NC[C@H](O)c1ccc(O)c(O)c1` [norepinephrine] came in with a ΔF/F on B2AR [2] of 150%. For the same molecule, the τ½ON in assay [1] (time constant of association, saturating conditions (1 μM drug)) worked out at 29.62 s. This molecule yielded a τ½OFF in assay [1] (time constant of dissociation, saturating conditions (1 μM drug)) of 106.91 s.
Regarding LSSLI-cpGFP-NHDQL [Universal module 2], the ΔF/F on B2AR [3] stood at 100%.

Values taken from US12459985B2, “G-protein-coupled receptor internal sensors” (THE REGENTS OF THE UNIVERSITY OF CALIFORNIA, priority 2016, dated 2025).
